As a reminder, the IC50 is the concentration that inhibits the measured activity by half.

Entries after “also recorded” stand apart in the source; their conditions may differ. Read-outs that look alike come from different tables or passages of the source.

This is an account of results in paper PMC12110735 (Diseases, 2025).

Data set [1] concerns non-tumorigenic breast epithelial cell line MCF12A. The data set can be described thus: Cytotoxicity, resazurin assay, 96 h, MCF-12A. Type of data set: cell-based. The note with it: MCF-12A cells; for IC50: 96 h, read-out: MCF-12A (IC50 and SD). As to the method: (§1) The cytotoxicity and IC50 values of the isolated compounds were evaluated in three cell lines, namely, the HCC70 basal triple-negative breast cancer (TNBC) cell line (ATCC: CRL-2315), the hormone receptor-positive breast cancer MCF-7 cell line (ATCC: HTB-22) and the non-tumorigenic breast epithelial cell line MCF12A (ATCC: CRL-10782) using the resazurin assay. The cells were seeded at a density of 5000 cells/well in a 96-well plate and allowed to attach overnight at 37 °C and 9% CO2. The cells were then treated with DMSO as vehicle control (0.2% vM), paclitaxel (Sigma-Aldrich, St. Louis, USA) as a positive control (0.32 to 200 nm) and a six-point range concentration (0.32 to 200 μM) of the isolated pure compounds and incubated for 96 h at 37 DC in a humidified 9% CO2 incubator. Resazurin ([…]) was added to the cells, and the cells were incubated for 2–4 h at 37 °C in 9% CO2. Fluorescence readings were obtained on a Spectramax spectrophotometer (excitation and emission wavelength set to 560 nm and 590 nm, respectively). The experiment was performed in triplicate, and the data was analyzed using GraphPad Prism Inc., (Version 4, USA) with a half-maximal inhibitory concentration (IC50 values) determined by non-linear regression. A selectivity index (SI) was determined for each compound to determine its therapeutic significance in cancerous cells. It was calculated as follows: Selectivity index (SI) = IC50 of compound in MCF12A/IC50 of compound in cancer line
(§2) SI function is a crucial metric for assessing a compound’s potential safety, with values below 1 indicating toxicity and those above 10 implying high selectivity for further investigation.

Data set [2] concerns hormone receptor-positive breast cancer MCF-7 cell line. The data set can be described thus: Cytotoxicity, resazurin assay, 96 h, MCF-7. Type of data set: cell-based. The note with it: for IC50 / cytotoxic activity against MCF-7 (in words): MCF-7 cells; for IC50: 96 h, read-out: MCF-7 (IC50 and SD); for Selectivity Index (SI) MCF-7: IC50 in MCF12A / IC50 in MCF-7. As to the method: as §1, §2
(In general: Resazurin is reduced to fluorescent resorufin, in cell work by metabolically active cells.)

Another data set deals with NF-kappa B. The settings on record: cited from earlier work.
Data set [3] relates to HCC70 basal triple-negative breast cancer (TNBC) cell line. As to the kind of experiment: Cytotoxicity, resazurin assay, 96 h, HCC70. Type of data set: cell-based. The note with it: for IC50: 96 h, read-out: HCC70 (IC50 and SD); for Selectivity Index (SI) HCC70: IC50 in MCF12A / IC50 in HCC70. As to the method:
as §1, §2

Data set [4] has as its system leukemic cell line (L1210). On the set-up: method as in PMID 12612427. The settings on record: cited from earlier work.
Where [5] appears, read: Homo sapiens, MCF-12A, resazurin, triplicate.
Setting [6] is: Homo sapiens, MCF7, 96 h, resazurin, triplicate.
Where [7] appears, read: Homo sapiens, HCC70, 96 h, HCC70 cells, resazurin, triplicate.
Setting [8] is: resazurin, triplicate, listed as 13R-Nepetaefolin (2).

With `CC(=O)O[C@@H]1C[C@@]2(CO2)[C@](O)(CCc2ccoc2)[C@]23CCC[C@](C)(C(=O)OC2)[C@H]13` [Compound 4, nepetaefuran], the values for the IC50 in data set [1] (setting [5]), in data set [2] (setting [6]) and in data set [3] (setting [7]) were more than 200000 nM, more than 200000 nM and 73700 ± 1100 nM, respectively. In addition, the “cytotoxic activity against MCF-12A (in words)” value in data set [1] is recorded as “no cytotoxic activity”. In addition, the “cytotoxic activity against MCF-7 (in words)” value in data set [2] was “no cytotoxic activity”. In addition, in the data set on NF-kappa B, the “anti-inflammatory activity, LPS pathway / NF-kappa B transactivation (in words)” value is “suppression of the transactivation of NF-kappa B”. Further, the “Selectivity Index (SI) HCC70” value in data set [3] (listed as nepetaefuran (4)) turned out to be 2.715.
As to `CC(=O)O[C@@H]1C[C@@]2(CO2)[C@]2(CC[C@@]3(C=COC3)O2)[C@]23CCC[C@](C)(C(=O)OC2)[C@H]13` [Compound 1, 13S-nepetaefolin], the IC50 in data set [1] (setting [5]) was 26600 ± 1320 nM; in data set [2] (setting [6]), more than 200000 nM; in data set [2] (resazurin, triplicate, listed as 13S-Nepetaefolin (1)), more than 200000 nM; in data set [3] (setting [7]), 24600 ± 1180 nM. Besides, the “Selectivity Index (SI) MCF-7” value in data set [2] was less than 0.132. For the same molecule, the “Selectivity Index (SI) HCC70” value in data set [3] (listed as 13S-Nepetaefolin (1)) is given as 1.08; in data set [3] (listed as 13S-nepetaefolin (1)) it was 1.077.
In the case of `CC(=O)O[C@@H]1C[C@@]2(CO2)[C@]2(CC[C@]3(C=COC3)O2)[C@]23CCC[C@](C)(C(=O)OC2)[C@H]13` [Compound 2, nepetaefolin], the IC50 in data set [1] (setting [5]) is more than 200000 nM; in data set [1] (setting [8]) it was more than 200000 nM; in data set [2] (setting [6]) it was more than 200000 nM; in data set [2] (setting [8]), more than 200000 nM; in data set [3] (HCC70 cells, resazurin, triplicate, listed as 13R-Nepetaefolin (2)) it was more than 200000 nM; in data set [3] (setting [7]) it was more than 200000 nM. In addition, the “cytotoxic activity against HCC70 (in words)” value in data set [3] (HCC70 cells) is reported as “no activity; also recorded: no such effects”.
For `CC(=O)O[C@@H]1C[C@@H](C)[C@](O)(CCc2ccoc2)[C@]23CCC[C@](C)(C(=O)OC2)[C@H]13` [Compound 3, dubiin], the values for the IC50 in data set [1] (setting [5]), in data set [2] (setting [6]) and in data set [3] (setting [7]) were more than 200000 nM, more than 200000 nM and 127900 ± 1230 nM, respectively. Moreover, in data set [1], the “cytotoxic activity against MCF-12A (in words)” value is recorded as “non-toxic”. Also, the “cytotoxic activity against MCF-7 (in words)” value in data set [2] was “non-toxic”. Moreover, the “Selectivity Index (SI) HCC70” value in data set [3] (listed as dubiin (3)) was found to be 1.564.
On to `C[C@@]12CCC[C@]3(C)C(=O)O[C@H](C[C@@]4(CO4)[C@]1(O)CCc1ccoc1)[C@H]23` [Compound 5, leonotin], for which the “cytotoxic activity against leukemic cell lines (in words)” value in data set [4] is given as “cytotoxic activity”.
As to `CC(=O)O[C@H]1C(=O)[C@@]2(C)[C@H]([C@H](OC(=O)c3ccccc3)[C@]3(O)C[C@H](OC(=O)[C@H](O)[C@@H](NC(=O)c4ccccc4)c4ccccc4)C(C)=C1C3(C)C)[C@]1(OC(C)=O)CO[C@@H]1C[C@@H]2O` [Paclitaxel, paclitaxel, reference compound], the IC50 in data set [1] (Homo sapiens, MCF-12A, positive control in nM) was found to be 16.2 ± 1.08 nM; in data set [2] (Homo sapiens, MCF7, 96 h, positive control in nM), 2.41 ± 1.11 nM; in data set [3] (Homo sapiens, HCC70, 96 h, HCC70 cells, positive control in nM), 3.92 ± 1.03 nM. Further, the “Selectivity Index (SI) MCF-7” value in data set [2] is on record as 6.71. Moreover, the “Selectivity Index (SI) HCC70” value in data set [3] turned out to be 4.12.
For leonotinin [Compound 6], in data set [1], the “cytotoxic activity against MCF-12A (in words)” value is listed as “no cytotoxic activity”. Also, the IC50 in data set [1] (resazurin, triplicate) was more than 200000 nM; in data set [2] (resazurin, triplicate), more than 200000 nM; in data set [3] (HCC70 cells, resazurin, triplicate), 94900 ± 1100 nM. Further, the “cytotoxic activity against MCF-7 (in words)” value in data set [2] was “no cytotoxic activity”. The “cytotoxic activity against leukemic cell lines (in words)” value in data set [4] was “cytotoxic activity”. For the same molecule, the “anti-inflammatory activity, LPS pathway / NF-kappa B transactivation (in words)” value in the data set on NF-kappa B was “suppression of the transactivation of NF-kappa B”. Moreover, in data set [3] (listed as leonotinin (6)), the “Selectivity Index (SI) HCC70” value turned out to be 2.108.
